In assay [1] the test system is E. coli. The experiment in a line: Combination study with AMP or CIP.
For assay [2], the system named is K. pneumoniae. The experiment in a line: Growth inhibition screening (broth dilution). It counts as cell-based, Klebsiella pneumonia. The settings on record: Klebsiella pneumoniae. How it is done: (§1) In vitro screening of the compounds (PS1–14) was performed to assess the antibacterial activity against three Gram-positive (Staphylococcus aureus, Enterococcus faecalis and Bacillus subtilis,) and three Gram-negative (Pseudomonas aeruginosa, Klebsiella pneumonia and Escherichia coli) bacterial strains using the standard NCCLS broth dilution assay. The study’s standard drugs were ciprofloxacin (CIP) and ampicillin (AMP). Compounds were dissolved in a polar solvent (DMSO) and distributed into a 96-well plate in 200 µL of nutrient broth medium, with a final concentration of the compounds […] in each well. The bacterial cells (about 2.5 × 10^5 cells/mL) were inoculated into each well and incubated at 37 °C overnight. After incubation, the growth was measured by turbidity of the culture at 590 nm by spectrophotometer.
In general terms: Broth dilution looks for growth in wells or tubes with falling amounts of substance.

For assay [3], the system named is P. aeruginosa. The experiment in a line: Growth inhibition screening (broth dilution). It counts as cell-based, Pseudomonas aeruginosa. The settings on record: Pseudomonas aeruginosa. How it is done: as §1
Assay [4] concerns K. pneumoniae. The assay can be described thus: Minimum inhibitory concentration (broth dilution). The assay is classed as cell-based, Klebsiella pneumonia. The settings on record: Klebsiella pneumoniae, alone, read-out: MIC.
The subject of assay [5] is P. aeruginosa. The experiment in a line: Combination study with AMP or CIP.
Assay [6] concerns S. aureus. The experiment in a line: Minimum inhibitory concentration (broth dilution). It counts as cell-based. The settings on record: Staphylococcus aureus, alone.
The test system of assay [7] is K. pneumoniae. The assay can be described thus: Combination study with AMP or CIP.
For assay [8], the system named is S. aureus. The experiment in a line: Combination study with AMP or CIP.
For assay [9], the system named is E. faecalis. The assay can be described thus: Minimum inhibitory concentration (broth dilution). It counts as cell-based. The settings on record: Enterococcus faecalis, alone.
Assay [10] relates to E. coli. The assay can be described thus: Minimum inhibitory concentration (broth dilution). The settings on record: Escherichia coli, alone, read-out: MIC. The assay is classed as cell-based, Escherichia coli.
The subject of assay [11] is B. subtilis. The assay can be described thus: Growth inhibition screening (broth dilution). The note with it: Bacillus subtilis. It counts as cell-based, Bacillus subtilis. How it is done:
as §1

Assay [12] deals with E. faecalis. The experiment in a line: Combination study with AMP or CIP.
Assay [13] relates to E. faecalis. The experiment in a line: Growth inhibition screening (broth dilution). The assay is classed as cell-based, Enterococcus faecalis. The note with it: Enterococcus faecalis. How it is done: as §1
The test system of assay [14] is B. subtilis. The experiment in a line: Combination study with AMP or CIP.
Assay [15] has as its system E. coli. The experiment in a line: Growth inhibition screening (broth dilution). It counts as cell-based, Escherichia coli. The settings on record: Escherichia coli. How it is done:
as §1

Assay [16] deals with P. aeruginosa. The assay can be described thus: Minimum inhibitory concentration (broth dilution). It counts as cell-based. The note with it: Pseudomonas aeruginosa, alone.
Assay [17] relates to S. aureus. The assay can be described thus: Growth inhibition screening (broth dilution). The settings on record: Staphylococcus aureus. The assay is classed as cell-based, Staphylococcus aureus. How it is done:
as §1

Values after ≈ are worked out from the molar mass of the structure shown.

The inhibition is the change of the read-out against control, counted positive when it falls. Low values mean a weak effect, high ones a strong effect. The MIC is the lowest concentration that inhibits growth of the organism. For the compound `O=C(O)c1cn(C2CC2)c2cc(N3CCNCC3)c(F)cc2c1=O` [CIP, Ciprofloxacin, reference compound], the “MIC in Combination” value is 0.5 µg/mL in the assay with E. coli [1] (combination PS6 + CIP); 0.03125 µg/mL with E. coli [1] (combination PS9 + CIP); 0.5 µg/mL in the assay on P. aeruginosa [5] (combination PS6 + CIP); 0.125 µg/mL in the assay with P. aeruginosa [5] (combination PS9 + CIP); 4 µg/mL with K. pneumoniae [7] (combination PS6 + CIP); 0.0078 µg/mL with K. pneumoniae [7] (combination PS9 + CIP). The “MIC in Combination” value in the assay on S. aureus [8] (combination PS6 + CIP) was determined as 0.25 µg/mL; in the assay with S. aureus [8] (combination PS9 + CIP) it was 0.0156 µg/mL; in the assay on E. faecalis [12] (combination PS6 + CIP), 0.0625 µg/mL; in the assay with E. faecalis [12] (combination PS9 + CIP), 1 µg/mL; in the assay on B. subtilis [14] (combination PS6 + CIP), 0.0078 µg/mL; with B. subtilis [14] (combination PS9 + CIP), 0.5 µg/mL. Also, the inhibition at 250 µg/mL in the assay on K. pneumoniae [2], in the assay on P. aeruginosa [3], in the assay on B. subtilis [11], in the assay with E. faecalis [13], in the assay on E. coli [15] and in the assay with S. aureus [17] was 100% throughout. The MIC with K. pneumoniae [4] came to 8 µg/mL (≈ 24.1 µM); against S. aureus [6] it was 0.5 µg/mL (≈ 1.51 µM); in the assay with E. faecalis [9] it was 1 µg/mL (≈ 3.02 µM); in the assay on E. coli [10], 8 µg/mL (≈ 24.1 µM); against P. aeruginosa [16] it was 4 µg/mL (≈ 12.1 µM).

These data come from publication PMC9405123, “Design, Synthesis and Mechanistic Studies of Novel Isatin-Pyrazole Hydrazone Conjugates as Selective and Potent Bacterial MetAP Inhibitors” (Antibiotics, 2022).
